Experimental data reported in patent US20230287343A1, “METHOD FOR GENERATING A THREE-DIMENSIONAL NEUROMUSCULAR ORGANOID IN VITRO” (MAX-DELBRÜCK-CENTRUM FÜR MOLEKULARE MEDIZIN IN DER …, priority 2020, published 2023).
“Also recorded” adds a separate entry of the source.

Experiments:
[1] = test system: neuromuscular organoids (NMOs); test: Microelectrode array (MEA) recording of NMO electrical activity; assay type: cell-based, human; details: for local (single electrode) firings / synchronous network activity (paired electrode spikes): NMDA and 5-HT stimulation at day 50; for rhythmic activity (central pattern generator-like): NMDA/5-HT cocktail; for activity triggered by the drugs (fictive locomotion paradigm): cocktail of NMDA (10 uM) and 5-HT (40 uM); for suppression of electrical activity: APV 50 uM and CNQX 40 uM applied together
[2] = test system: neuromuscular organoids (NMOs); test: Contractile activity of NMOs before and after curare; assay type: cell-based, human; details: curare 10 uM, before and after treatment
Protocol: Video segments of equal length were recorded using a bright-field microscope (DMI1, Leica) in 3 different regions of the same organoid using 20× zoom. To quantify muscle contractions, each movie was analyzed separately where each visible contraction was counted and then averaged for the whole organoid.
To analyze and map organoid muscular contraction, bright field time series images were automatically thresholded using ImageJ software to identify organoid border. A binary stack was created and contractile regions were visually identified. Regions of interest were defined and variations of organoid area (in pixel), used as a proxy of physical contraction, were plotted over the time series.

In the case of N[C@@H](CCC(=O)O)C(=O)O [glutamate], the “increase of spontaneous activity” value ([1]; acute glutamate 50 uM, day 30 and day 50 organoids) was “approximately 12 fold”.
CN[C@H](CC(=O)O)C(=O)O [NMDA] was tested, and the “local (single electrode) firings” value [1] was “increased single firings; also recorded: notable increase of local firings”, the “synchronous network activity (paired electrode spikes)” value [1] was “increase in paired electrode spikes; also recorded: dramatic increase of synchronous network activity” and the “rhythmic activity (central pattern generator-like)” value ([1]; day 50 NMOs) was “activity became rhythmic; also recorded: produced rhythmic bursts of electrical activity”. For the same molecule, the “activity triggered by the drugs (fictive locomotion paradigm)” value [1] was “instantaneously triggered strong activity”.
With NC1=N[C@H](O)[C@H]2[C@H]3O[C@]4(O)O[C@@H]([C@@H](O)[C@@]2(N1)[C@@H]4O)[C@]3(O)CO [tetrodotoxin] the “suppression of NMDA/5-HT triggered activity” value [1] was “reversibly suppressed”.
In the case of curare, the “contraction of the skeletal muscles (contractile activity of NMOs)” value [2] was “blocked the contraction of the skeletal muscles; also recorded: organoid relaxation” and the “block of acetylcholine-stimulated electrical activity” value ([1]; curare 10 uM, day 50 NMOs) was “rapidly and reversibly blocked”.
For NCCc1c[nH]c2ccc(O)cc12 [5-HT, Serotonin], the “local (single electrode) firings” value [1] was “increased single firings; also recorded: notable increase of local firings”, the “synchronous network activity (paired electrode spikes)” value [1] was “increase in paired electrode spikes; also recorded: dramatic increase of synchronous network activity” and the “rhythmic activity (central pattern generator-like)” value ([1]; day 50 NMOs) was “activity became rhythmic; also recorded: produced rhythmic bursts of electrical activity”. The “activity triggered by the drugs (fictive locomotion paradigm)” value [1] was “instantaneously triggered strong activity”.
For N#Cc1cc2[nH]c(=O)c(=O)[nH]c2cc1[N+](=O)[O-] [CNQX], the “suppression of electrical activity” value [1] was “reversibly suppressed nearly all electrical activity”.
With N[C@@H](CCCP(=O)(O)O)C(=O)O [APV] the “suppression of electrical activity” value [1] was “reversibly suppressed nearly all electrical activity”.
